{"source": "patent US20080318837A1", "about": "“Pharmaceutical Formation For Increased Epithelial Permeability of Glucose-Regulating Peptide” (priority 2003, published 2008)", "key": {"ciliary motility": {"tested_on": "ciliary motility", "settings": "cited from earlier work"}, "[1]": {"settings": "intraduodenally administered to rats; cited from earlier work"}, "[2]": {"settings": "after feeding to rats; cited from earlier work"}, "[3]": {"settings": "aqueous solution, physiologic pH; cited from earlier work"}, "aminopeptidases": {"tested_on": "aminopeptidases", "settings": "cited from earlier work"}, "[4]": {"tested_on": "EpiAirway tracheal/bronchial epithelial cell membrane", "assay": "Transepithelial electrical resistance (TEER/TER), EpiAirway model", "format": "cell-based", "settings": "Table 6 formulations, 2 mg/mL GLP-1", "experimental": "Triplicate samples of each formulation and controls were evaluated using the EpiAirway System in vitro model tracheal/bronchial epithelial cell membrane inserts by MatTek Corp. (Ashland, Mass.), catalog #Air-100.\nEpiAirway™ culture membranes were received the day before the experiments started. They were shipped in phenol red-free and hydrocortisone-free Dulbecco's Modified Eagle's Medium (DMEM). Each tissue insert was placed into a well of a 6 well plate containing 0.9 ml of serum free DMEM. The membranes were then cultured for 24 hrs at 37° C./5% CO2 to allow tissues to equilibrate. […]\nTEER measurements were read using a Tissue Resistance Measurement Chamber connected to an Epithelial Voltohmeter with the electrode leads, both from World Precision Instruments. First, background TEER was read for each insert on the day the experiment began. After TEER was read, 1 ml fresh media was placed in the bottom of each well in a 6-well plate. […]\nThe electrodes and a tissue culture blank insert were equilibrated for at least 20 min in fresh media with the power off prior to checking calibration. The background resistance was measured with 1.5 ml media in the Endohm tissue chamber and 300 μl media in a blank Millicell-CM insert. […] For each TEER determination, 300 μl media was added to the insert followed by a 20 min incubation at RT before placement in the Endohm chamber to read TEER. […]"}, "[5]": {"tested_on": "EpiAirway tracheal/bronchial epithelial cell membrane", "assay": "LDH cytotoxicity (cell death) assay, EpiAirway model", "format": "cell-based", "method": "Fresh, cell-free media was used as a blank. 50 μl substrate solution (12 ml Assay Buffer added to a fresh bottle of Substrate Mix, made according to the kit) was added to each well and the plates were incubates for 30 min at RT in the dark."}, "[6]": {"tested_on": "EpiAirway tracheal/bronchial epithelial cell membrane", "experimental": "Triplicate samples of each formulation and controls were evaluated using the EpiAirway System in vitro model tracheal/bronchial epithelial cell membrane inserts by MatTek Corp. (Ashland, Mass.), catalog #Air-100. […] The epithelial cells are grown on porous membrane-bottomed cell culture inserts at an air-liquid interface, which results in differentiation of the cells to a highly polarized morphology. The apical surface is ciliated with a microvillous ultrastructure and the epithelium produces mucus (the presence of mucin has been confirmed by immunoblotting). The inserts have a diameter of 0.875 cm, providing a surface area of 0.6 cm^2. The cells are plated onto the inserts at the factory approximately three weeks before shipping.\nEpiAirway™ culture membranes were received the day before the experiments started. They were shipped in phenol red-free and hydrocortisone-free Dulbecco's Modified Eagle's Medium (DMEM). […]\nThe cell viability of each tissue culture insert was tested by MTT assay. Cell viability was assessed using the MTT assay (MTT-100, MatTek kit). […] The optical density of the samples was measured at 550 nm on a μQuant optical density plate reader using KCJr software.\nThe MTT percentage was calculated by dividing the measured MTT value for each formulation by the MTT value of the control formulation multiplied by 100. […]"}}}
{"compound": "2-alkyl-4-hydroxyquinolines [pyo compound]", "values": [{"measurement": "concentration producing ciliostasis / inhibiting ciliary motility", "setting": "ciliary motility", "value": 50, "unit": "µg/mL"}]}
{"compound": "9-desglycinamide, 8-arginine vasopressin [DGAVP]", "values": [{"measurement": "bioavailability increase with 1% (w/v) polycarbophil vs aqueous solution", "setting": "[1]", "value": "3-5 fold"}]}
{"compound": "Phaseolus vulgaris hemagglutinin", "values": [{"measurement": "oral bioavailability", "setting": "[2]", "value": "more than 10%"}]}
{"compound": "CCN(CC)/[N+]([O-])=N/O.CCNCC", "note": "[diethylamine/NO]", "values": [{"measurement": "NO release rate (time)", "setting": "[3]", "value": "< 3", "unit": "min"}]}
{"compound": "CC(C)CC(N)B(O)O", "note": "(stereo not shown) [boro-leucine]", "values": [{"measurement": "enzyme inhibition, times more effective than bestatin", "setting": "aminopeptidases", "value": "more than 100 times"}, {"measurement": "enzyme inhibition, times more effective than puromycin", "setting": "aminopeptidases", "value": "more than 1000 times"}]}
{"compound": "Octylphenolpoly(ethyleneglycolether)x [LDH Control]", "values": [{"measurement": "% TEER Reduction", "setting": "[4]", "value": 100, "unit": "%"}, {"measurement": "% LDH", "setting": "[5]", "value": 100, "unit": "%"}, {"measurement": "% MTT", "setting": "[6]", "value": 1, "unit": "%"}]}
{"compound": "NCCN(CCN)/[N+]([O-])=N/O", "note": "[diethylenetriamine/NO]", "values": [{"measurement": "NO release rate (time)", "setting": "[3]", "value": "approximately 20 hours"}]}
